Consider 26 compounds from US20110040088A1, “FUSED HETEROCYCLIC COMPOUNDS” (priority 2003, published 2011).

The Ki is the dissociation constant of the complex between target and ligand, obtained from inhibition or displacement.

Like-named read-outs stand apart in the source and are kept apart here.

Experiment [1] has as its target T1, human recombinant 5-HT2C receptor (Homo sapiens, UniProt P28335).
T1 sequence (P28335 33-458): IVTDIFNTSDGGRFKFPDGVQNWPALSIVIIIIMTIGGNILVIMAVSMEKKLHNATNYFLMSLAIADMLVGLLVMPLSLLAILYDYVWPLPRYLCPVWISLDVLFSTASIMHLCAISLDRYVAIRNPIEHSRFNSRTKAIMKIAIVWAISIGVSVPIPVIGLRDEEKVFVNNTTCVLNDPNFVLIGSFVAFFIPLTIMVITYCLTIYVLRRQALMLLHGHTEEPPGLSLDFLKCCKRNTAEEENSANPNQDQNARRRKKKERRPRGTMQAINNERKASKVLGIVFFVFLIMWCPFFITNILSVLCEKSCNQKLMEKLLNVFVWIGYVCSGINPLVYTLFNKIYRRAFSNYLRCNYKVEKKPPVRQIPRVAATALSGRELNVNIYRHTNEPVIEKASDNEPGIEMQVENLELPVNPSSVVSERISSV
Briefly: 5-HT2C receptor radioligand binding ([3H]mesulergine, CHO membranes).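 Note: competitive displacement of the tritiated ligand, using membranes from CHO cells stably transfected with the human receptor.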
Description: (§1) Affinity for 5HT2 Receptor Binding Sites
(§2) Receptor binding was performed using the human recombinant 5-HT2A (GB: X57830), 5-HT2B (GB: Z36748) and 5-HT2c (GB: M81778) receptors. The affinity of the compounds for the 3 different human 5-HT2 receptor subtypes was evaluated by competitive radioligand binding assays using [^3H]ketanserin (h5-HT2A) or [^3H]mesulergine (h5-HT2B and h5-HT2c). The assays were performed on membranes prepared from NIH3T3 stably transfected with h5-HT2A or CHO stably transfected with h5-HT2B and h5-HT2C.

Experiment [2] deals with 5-HT2A receptor (UniProt P28223). Put plainly: 5-HT2A receptor radioligand binding ([3H]ketanserin).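 Note: competitive displacement binding on membranes, either from rat cerebral cortex or from NIH3T3 cells stably expressing human 5-HT2A.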 Conditions: read-out: Ki 5-HT2A, table does not say whether rat cortex or human recombinant (NIH3T3) receptor.
Experiment [3] deals with human recombinant 5-HT2B receptor (Homo sapiens, UniProt P41595). Put plainly: 5-HT2B receptor radioligand binding ([3H]mesulergine, CHO membranes).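 Note: competitive displacement binding on membranes of CHO cells stably expressing the receptor.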
Description: as §1, §2
Experiment [4] deals with T2, rat 5-HT7a receptor (Rattus norvegicus, UniProt P32305).
T2 construct: expressed in transfected cells
Briefly: 5-HT7 receptor radioligand binding ([3H]5-CT, membranes of transfected HEK-293 cells). Conditions: rat 5-HT7a in HEK-293 membranes, 1 nM [3H]5-CT.

The mark [5] stands for this setting: read-out: Ki 5-HT2C, h5-HT2C in CHO membranes, [3H]mesulergine.

Chain of human recombinant 5-HT2B receptor (P41595 whole entry): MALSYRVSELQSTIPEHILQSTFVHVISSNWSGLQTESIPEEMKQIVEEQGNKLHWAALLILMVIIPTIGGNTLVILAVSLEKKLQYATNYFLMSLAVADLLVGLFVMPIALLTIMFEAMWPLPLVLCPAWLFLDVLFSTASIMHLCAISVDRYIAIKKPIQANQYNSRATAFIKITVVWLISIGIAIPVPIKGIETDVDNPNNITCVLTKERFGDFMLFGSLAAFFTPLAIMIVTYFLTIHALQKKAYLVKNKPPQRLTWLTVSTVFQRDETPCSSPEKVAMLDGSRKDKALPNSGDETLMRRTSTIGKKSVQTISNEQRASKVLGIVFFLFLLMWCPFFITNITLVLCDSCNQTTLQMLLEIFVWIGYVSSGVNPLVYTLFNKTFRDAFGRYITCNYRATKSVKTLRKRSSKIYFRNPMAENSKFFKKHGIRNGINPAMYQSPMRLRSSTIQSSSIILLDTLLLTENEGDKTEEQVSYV
T2 sequence (P32305 whole entry): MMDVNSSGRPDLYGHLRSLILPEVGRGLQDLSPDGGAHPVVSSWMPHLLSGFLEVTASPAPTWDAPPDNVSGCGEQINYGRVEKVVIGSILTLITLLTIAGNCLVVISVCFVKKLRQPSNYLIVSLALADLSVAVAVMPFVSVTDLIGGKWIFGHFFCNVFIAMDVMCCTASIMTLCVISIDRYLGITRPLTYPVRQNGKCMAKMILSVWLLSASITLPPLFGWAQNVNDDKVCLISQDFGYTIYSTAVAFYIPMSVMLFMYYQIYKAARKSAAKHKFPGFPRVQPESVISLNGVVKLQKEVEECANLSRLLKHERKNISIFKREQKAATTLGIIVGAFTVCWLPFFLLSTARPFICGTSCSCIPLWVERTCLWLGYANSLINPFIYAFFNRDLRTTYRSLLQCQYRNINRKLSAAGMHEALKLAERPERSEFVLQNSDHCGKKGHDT

Regarding `c1ccc(Cn2nc(-c3cccs3)c3c2CCNCC3)cc1` [Example 104, 1-Benzyl-3-thiophen-2-yl-1,4,5,6,7,8-hexahydro-1,2,6-triaza-azulene], the Ki was found to be 360 nM in experiment [1], 80 nM in experiment [2], 52 nM in experiment [3] and 9 nM in experiment [4].

Consider `CC(C)Cn1nc2c(c1-c1ccc(Cl)cc1)CCNCC2` [Example 131, 3-(4-Chloro-phenyl)-2-isobutyl-2,4,5,6,7,8-hexahydro-1,2,6-triaza-azulene], for which the inhibition constant (Ki) in experiment [1] was determined as 50 nM; in experiment [2], 7 nM; in experiment [3], 4.2 nM; in experiment [4] it was 120 nM.

`c1ccc(Cn2nc3c(c2-c2ccccc2)CCNCC3)cc1` [Example 133, 2-Benzyl-3-phenyl-2,4,5,6,7,8-hexahydro-1,2,6-triaza-azulene]: the inhibitory constant (Ki) in experiment [1] turned out to be 10 nM; in experiment [2], 2.3 nM; in experiment [3], 3.5 nM; in experiment [4] it was 125 nM.

Take `Oc1ccc(Cn2nc(-c3ccc(Cl)cc3)c3c2CCNCC3)cc1F` [Example 160, 4-[3-(4-Chloro-phenyl)-5,6,7,8-tetrahydro-4H-1,2,6-triaza-azulen-1-ylmethyl]-2-fluoro-phenol]: the Ki in experiment [1] is 3500 nM; in experiment [2], 300 nM; in experiment [3], 350 nM; in experiment [4], 7 nM.

For `CN1CCc2c(-c3ccc(Cl)cc3)nn(Cc3ccccc3)c2CC1` [Example 165, 1-Benzyl-3-(4-chloro-phenyl)-6-methyl-1,4,5,6,7,8-hexahydro-1,2,6-triaza-azulene], the Ki in experiment [1] was 180 nM; in experiment [2], 100 nM; in experiment [3], 310 nM; in experiment [4], 4 nM.

`CCN1CCc2c(-c3ccc(Cl)cc3)nn(Cc3ccccc3)c2CC1` [Example 166, 1-Benzyl-3-(4-chloro-phenyl)-6-ethyl-1,4,5,6,7,8-hexahydro-1,2,6-triaza-azulene]: the inhibition constant Ki in experiment [1] is 590 nM; in experiment [2], 80 nM; in experiment [3], 560 nM; in experiment [4], 8 nM.

Consider `c1ccc(-c2c3c(nn2C2CCCCC2)CCNCC3)cc1` [Example 177, 2-Cyclohexyl-3-phenyl-2,4,5,6,7,8-hexahydro-1,2,6-triaza-azulene], for which the Ki in experiment [1] is 110 nM; in experiment [2], 7 nM; in experiment [3], 7 nM; in experiment [4], 80 nM.

On to `c1ccc(-c2c3c(nn2C2CCCC2)CCNCC3)cc1` [Example 180, 2-Cyclopentyl-3-phenyl-2,4,5,6,7,8-hexahydro-1,2,6-triaza-azulene], for which the Ki in experiment [1] was found to be 12 nM; in experiment [2], 1.5 nM; in experiment [3], 1.4 nM; in experiment [4], 10 nM.

Regarding `Clc1ccc(-c2c3c(nn2C2CCCC2)CCNCC3)cc1` [Example 181, 3-(4-Chloro-phenyl)-2-cyclopentyl-2,4,5,6,7,8-hexahydro-1,2,6-triaza-azulene], the Ki in experiment [1] is 11 nM; in experiment [2], 1.5 nM; in experiment [3], 1.8 nM; in experiment [4], 37 nM.

Turning to `Fc1ccc(-c2c3c(nn2C2CCCC2)CCNCC3)cc1` [Example 182, 2-Cyclopentyl-3-(4-fluoro-phenyl)-2,4,5,6,7,8-hexahydro-1,2,6-triaza-azulene], the Ki in experiment [1] was found to be 18 nM; in experiment [2], 0.74 nM; in experiment [3], 1.4 nM; in experiment [4] it was 90 nM.

As to `CCC(CC)n1nc2c(c1-c1cccc(F)c1)CCNCC2` [Example 183, 2-(1-Ethyl-propyl)-3-(3-fluoro-phenyl)-2,4,5,6,7,8-hexahydro-1,2,6-triaza-azulene], the inhibitory constant (Ki) in experiment [1] stood at 70 nM; in experiment [2], 7 nM; in experiment [3] it was 54 nM; in experiment [4] it was 240 nM.

As to `CCC(CC)n1nc2c(c1-c1ccc(F)cc1)CCNCC2` [Example 184, 2-(1-Ethyl-propyl)-3-(4-fluoro-phenyl)-2,4,5,6,7,8-hexahydro-1,2,6-triaza-azulene], the Ki in experiment [1] came out at 15 nM; in experiment [2], 1 nM; in experiment [3], 17 nM; in experiment [4], 120 nM.

Regarding `CCC(CC)n1nc2c(c1-c1ccccc1)CCNCC2` [Example 186, 2-(1-Ethyl-propyl)-3-phenyl-2,4,5,6,7,8-hexahydro-1,2,6-triaza-azulene], the Ki in experiment [1] was determined as 20 nM; in experiment [2], 1 nM; in experiment [3], 24 nM; in experiment [4], 61 nM.

Regarding `CC(C)n1nc2c(c1-c1ccc(F)cc1)CCNCC2` [Example 190, 3-(4-Fluoro-phenyl)-2-isopropyl-2,4,5,6,7,8-hexahydro-1,2,6-triaza-azulene], the Ki in experiment [1] came out at 51 nM; in experiment [2], 10 nM; in experiment [3], 22 nM; in experiment [4] it was 16 nM.

As to `c1cc(-c2c3c(nn2C2CCCC2)CCNCC3)cs1` [Example 192, 2-Cyclopentyl-3-thiophen-3-yl-2,4,5,6,7,8-hexahydro-1,2,6-triaza-azulene], the Ki in experiment [1] is 15 nM; in experiment [2] it was 2.5 nM; in experiment [3] it was 0.9 nM; in experiment [4] it was 20 nM.

`Cc1ccc(-c2c3c(nn2C(C)C)CCNCC3)cc1` [Example 209, 2-Isopropyl-3-p-tolyl-2,4,5,6,7,8-hexahydro-1,2,6-triaza-azulene]: the Ki in experiment [1] (setting [5]) was determined as 12 nM; in experiment [2], 1.1 nM; in experiment [3] it was 1.4 nM; in experiment [4], 6 nM.

As to `CCc1ccc(-c2c3c(nn2C(C)C)CCNCC3)cc1` [Example 210, 3-(4-Ethyl-phenyl)-2-isopropyl-2,4,5,6,7,8-hexahydro-1,2,6-triaza-azulene], the Ki came out at 20 nM in experiment [1], 2 nM in experiment [2], 0.75 nM in experiment [3] and 7 nM in experiment [4].

For `CC(C)n1nc2c(c1-c1ccc(Cl)cc1)CCNCC2` [Example 211, 3-(4-Chloro-phenyl)-2-isopropyl-2,4,5,6,7,8-hexahydro-1,2,6-triaza-azulene], the Ki in experiment [1] (setting [5]) came out at 18 nM; in experiment [2], 5 nM; in experiment [3], 0.5 nM; in experiment [4], 8.5 nM.

Consider `CC(C)n1nc2c(c1-c1ccc(C#N)cc1)CCNCC2` [Example 212, 4-(2-Isopropyl-2,4,5,6,7,8-hexahydro-1,2,6-triaza-azulen-3-yl)-benzonitrile], for which the Ki in experiment [1] came to 425 nM; in experiment [2] it was 25 nM; in experiment [3] (read-out: Ki 5-HT2B, h5-HT2B in CHO membranes, [3H]mesulergine), 12 nM; in experiment [4], 93 nM.

Consider `CC(C)n1nc2c(c1-c1ccc(C(F)(F)F)cc1)CCNCC2` [Example 213, 2-Isopropyl-3-(4-trifluoromethyl-phenyl)-2,4,5,6,7,8-hexahydro-1,2,6-triaza-azulene], for which the Ki in experiment [1] (setting [5]) came to 80 nM; in experiment [2], 7.5 nM; in experiment [3], 4.7 nM; in experiment [4] it was 12 nM.

Regarding `CC(C)(C)n1nc2c(c1-c1ccc(F)cc1)CCNCC2` [Example 216, 2-tert-Butyl-3-(4-fluoro-phenyl)-2,4,5,6,7,8-hexahydro-1,2,6-triaza-azulene], the inhibitory constant (Ki) in experiment [1] was 17 nM; in experiment [2] it was 6 nM; in experiment [3], 20 nM; in experiment [4], 70 nM.

For `Cc1ccc(-c2c3c(nn2C2CCCC2)CCNCC3)cc1` [Example 217, 2-Cyclopentyl-3-p-tolyl-2,4,5,6,7,8-hexahydro-1,2,6-triaza-azulene], the inhibition constant (Ki) in experiment [1] came out at 10 nM; in experiment [2] it was 1 nM; in experiment [3] it was 0.65 nM; in experiment [4] it was 25 nM.

Regarding `FC(F)(F)c1ccc(-c2c3c(nn2C2CCCC2)CCNCC3)cc1` [Example 218, 2-Cyclopentyl-3-(4-trifluoromethyl-phenyl)-2,4,5,6,7,8-hexahydro-1,2,6-triaza-azulene], the Ki came to 15 nM in experiment [1], 1.7 nM in experiment [2], 1.8 nM in experiment [3] and 75 nM in experiment [4].

Consider `COc1ccc(-c2c3c(nn2C2CCCC2)CCNCC3)cc1` [Example 220, 2-Cyclopentyl-3-(4-methoxy-phenyl)-2,4,5,6,7,8-hexahydro-1,2,6-triaza-azulene], for which the inhibition constant (Ki) in experiment [1] stood at 6.8 nM; in experiment [2], 1.3 nM; in experiment [3], 0.55 nM; in experiment [4] it was 55 nM.

Turning to `c1cc(-c2c3c(nn2C2CCCC2)CCNCC3)co1` [Example 232, 2-Cyclopentyl-3-furan-3-yl-2,4,5,6,7,8-hexahydro-1,2,6-triaza-azulene], the Ki is 66 nM in experiment [1], 25 nM in experiment [2], 0.5 nM in experiment [3] and 20 nM in experiment [4].

As for `c1csc(-c2c3c(nn2C2CCCC2)CCNCC3)c1` [Example 233, 2-Cyclopentyl-3-thiophen-2-yl-2,4,5,6,7,8-hexahydro-1,2,6-triaza-azulene], the inhibition constant Ki in experiment [1] amounted to 16 nM; in experiment [2], 4 nM; in experiment [3] it was 25 nM; in experiment [4] it was 15 nM.
